The source of these data is US12606572B2, “Substituted heterocycles and uses thereof” (Kumquat Biosciences Inc., priority 2023, dated 2026).

T1 sequence (P01116 1-188 isoform P01116-2): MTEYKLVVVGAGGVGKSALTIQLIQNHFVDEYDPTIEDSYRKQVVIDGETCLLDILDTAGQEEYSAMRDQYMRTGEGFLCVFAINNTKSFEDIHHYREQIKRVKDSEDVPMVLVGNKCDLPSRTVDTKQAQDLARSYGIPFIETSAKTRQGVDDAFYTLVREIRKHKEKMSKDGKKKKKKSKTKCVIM

The experiment has as its target T1, KRAS WT (Homo sapiens, UniProt P01116).
T1 construct: made in house; host or cells: E. coli BL21 (DE3)
Kind of experiment: HTRF assay, interaction of GST-tagged K-Ras with His-tagged hSOS1 (KRAS wildtype). The experiment is classed as biochemical. The note with it: <500 nM, read-out: Inhibition of KRAS WT (IC50). The text has this:
This assay can be also used to assess a selective inhibition or reduction of signaling output of a mutant Ras protein relative to a wildtype, or relative to a different mutant Ras protein. For example, the equilibrium interaction of wildtype KRAS or K-Ras mutant (e.g., wildtype or a mutant thereof) with SOS1 (e.g., hSOS1) can be assessed as a proxy or an indication for the ability of a subject compound to bind and inhibit Ras protein. The HTRF assay detects from (i) a fluorescence resonance energy transfer (FRET) donor (e.g., antiGST-Europium) that is bound to GST-tagged K-Ras mutant to (ii) a FRET acceptor (e.g., anti-6His-XL665) bound to a His-tagged hSOS1.
The assay buffer can contain ˜5 mM HEPES pH 7.4, ˜150 mM NaCl, ˜1 mM DTT, 0.05% BSA and 0.0025% (v/v) Igepal. A Ras working solution is prepared in an assay buffer containing typically a suitable amount of the protein construct (e.g., GST-tagged K-Ras mutant) and the FRET donor (e.g., antiGST-Eu(K) from Cisbio, France). A SOS1 working solution is prepared in an assay buffer containing suitable amount of the protein construct (e.g., His-hSOS1) and the FRET acceptor (e.g., anti-6His-XL665 from Cisbio, France). A suitable amount of the protein construct will depend on the range of activity or range of IC50 values being detected or under investigation. For detecting an IC50 within a range of 500 nM, the protein constructs of the same range of molarity can be utilized.
A fixed volume of DMSO with or without test compound is transferred into a 384-well plate. Ras working solution is added to all wells of the test plate. SOS1 working solution is added to all wells except for those that are subsequently filled with inhibitor control solution. Upon incubation for about 10 minutes or longer, the fluorescence is measured with a M1000Pro plate reader (Tecan) using HTRF detection (excitation 337 nm, emission 1: 620 nm, emission 2: 665 nm). Compounds are tested in duplicate at different concentrations (for example, 10 μM, 2.5 μM, 0.63 μM, 0.16 μM, 0.04 μM, 0.01 μM test compound). The ratiometric data (i.e., emission 2 divided by emission 1) is used to calculate IC50 values against Ras using GraphPad Prism (GraphPad software). Signaling output measured in terms of IC50 values can be obtained and a ratio of IC50 against one mutant relative to another mutant can be calculated. For instance, a selective reduction of K-Ras G12S signaling output can be evidenced by a ratio greater than one. In particular, a selective reduction of K-Ras G12S signaling relative to K-Ras WT signaling is evidenced if the ratio of IC50 (against K-Ras WT) to IC50 (against K-Ras G12S) is greater than 1.
Take `C[C@H](O)[C@H]1COc2c(Cl)c(-c3ccc(F)c4sc(N)c(C#N)c34)c(F)c3nc(OC[C@@]45CCCN4C[C@H](F)C5)nc(c23)N1C1CC(CN(C)C(=O)n2ccnc2)C1` (stereo partly drawn) [Compound 482, N-((3-((5R)-9-(2-amino-3-cyano-7-fluorobenzo[b]thiophen-4-yl)-8-chloro-10-fluoro-2-(((2R,7aS)-2-fluorotetrahydro-1H-pyrrolizin-7a(5H)-yl)methoxy)-5-((S)-1-hydroxyethyl)-5,6-dihydro-4H-[1,4]oxazepino [5,6,7-de]quinazolin-4-yl)cyclobutyl)methyl)-N-methyl-1H-imidazole-1-carboxamide]: the IC50 is < 500 nM.

On to `Cc1cn(C(=O)N2CC[C@@H](N3C[C@H](C)Oc4cc(-c5cc(N)c(F)c(C)c5C(F)(F)F)c(F)c5nc(OC[C@@]67CCCN6C[C@H](F)C7)nc3c45)[C@H]2C)c(C)n1` [Compound 415, ((2R,3R)-3-((S)-9-(5-amino-4-fluoro-3-methyl-2-(trifluoromethyl)phenyl)-10-fluoro-2-(((2R,7aS)-2-fluorotetrahydro-1H-pyrrolizin-7a(5H)-yl)methoxy)-6-methyl-5,6-dihydro-4H-[1,4]oxazepino [5,6,7-de]quinazolin-4-yl)-2-methylpyrrolidin-1-yl)(2,4-dimethyl-1H-imidazol-1-yl)methanone], for which the half-inhibitory concentration (IC50) is < 500 nM.

Take `CC(CN(C)C(=O)n1ccnc1)N1c2nc(OC[C@@]34CCCN3C[C@H](F)C4)nc3c(F)c(-c4ccc(F)c5sc(N)c(C#N)c45)c(Cl)c(c23)OC[C@@H]1[C@H](C)O` (stereo partly drawn) [Compound 467, N-(2-((5R)-9-(2-amino-3-cyano-7-fluorobenzo[b]thiophen-4-yl)-8-chloro-10-fluoro-2-(((2R,7aS)-2-fluorotetrahydro-1H-pyrrolizin-7a(5H)-yl)methoxy)-5-((S)-1-hydroxyethyl)-5,6-dihydro-4H-[1,4]oxazepino[5,6,7-de]quinazolin-4-yl)propyl)-N-methyl-1H-imidazole-1-carboxamide]: the IC50 is < 500 nM.

On to `C[C@H]1COc2c(Cl)c(-c3ccc(F)c4sc(N)c(C#N)c34)c(F)c3nc(OC[C@@]45CCCN4C[C@H](F)C5)nc(c23)N1C[C@@H]1CN(C(=O)n2ccnc2)[C@@H]1C1(C)CC1` (single isomer, unassigned) [Compound 473], for which the concentration for half-maximal inhibition (IC50) is < 500 nM.

Consider `CN1[C@H](C2CC2)[C@@H]1C(=O)N1CC(CN2CCOc3c(Cl)c(-c4ccc(F)c5sc(N)c(C#N)c45)c(F)c4nc(OC[C@@]56CCCN5C[C@H](F)C6)nc2c34)C1` (stereo partly drawn) [Compound 460, 2-amino-4-(8-chloro-4-((1-((2R,3R)-3-cyclopropyl-1-methylaziridine-2-carbonyl)azetidin-3-yl)methyl)-10-fluoro-2-(((2R,7aS)-2-fluorotetrahydro-1H-pyrrolizin-7a(5H)-yl)methoxy)-5,6-dihydro-4H-[1,4]oxazepino [5,6,7-de]quinazolin-9-yl)-7-fluorobenzo[b]thiophene-3-carbonitrile], for which the IC50 was < 500 nM.

Take `N#Cc1cn(C(=O)N2CC(CN3CCOc4c(Cl)c(-c5ccc(F)c6sc(N)c(C#N)c56)c(F)c5nc(OC[C@@]67CCCN6C[C@H](F)C7)nc3c45)C2)cn1` [Compound 478, 1-(3-((9-(2-amino-3-cyano-7-fluorobenzo[b]thiophen-4-yl)-8-chloro-10-fluoro-2-(((2R,7aS)-2-fluorotetrahydro-1H-pyrrolizin-7a(5H)-yl)methoxy)-5,6-dihydro-4H-[1,4]oxazepino[5,6,7-de]quinazolin-4-yl)methyl)azetidine-1-carbonyl)-1H-imidazole-4-carbonitrile]: the IC50 is < 500 nM.
